Consider 21 compounds from US20200085791A1, “[(PHENYLSULFONYL)OCTAHYDRO-EPIMINOISOINDOL-YL](1H-1,2,3-TRIAZOL-5-YL)METHANONES” (Bayer Pharma Aktiengesellschaft, priority 2016, published 2020).

The structures appear in SMILES notation.

This experiment has as its target T1, recombinant human AKR1C3 (Aldo-keto reductase family 1 member C3) (Homo sapiens, UniProt P42330).
T1 construct: GST (cleaved yes); made in house; host or cells: E. coli
T1 sequence (P42330 1-323): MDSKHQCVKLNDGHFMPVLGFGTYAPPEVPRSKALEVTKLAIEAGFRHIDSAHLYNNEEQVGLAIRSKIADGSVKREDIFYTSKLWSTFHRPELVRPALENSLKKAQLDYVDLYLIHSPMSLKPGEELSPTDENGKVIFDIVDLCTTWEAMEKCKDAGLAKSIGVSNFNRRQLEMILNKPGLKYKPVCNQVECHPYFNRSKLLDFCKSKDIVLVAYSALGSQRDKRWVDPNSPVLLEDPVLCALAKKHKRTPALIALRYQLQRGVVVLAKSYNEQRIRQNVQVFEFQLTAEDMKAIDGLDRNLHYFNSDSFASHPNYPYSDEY
Kind of experiment: In Vitro Assay 1: AKR1C3-inhibitory activity (Coumberone to Coumberol fluorescence assay). Type of experiment: biochemical. The settings on record: recombinant enzyme, Coumberone 0.3 μM, NADPH 10 μM, 15 min pre-incubation, 4-parameter fit; average or median values. As to the method:
In Vitro Assay 1: AKR1C3-Inhibitory Activity
The AKR1C3-inhibitory activity of the substances of the present invention was measured in the AKR1C3 assay described in the paragraphs below.
Essentially, the enzyme activity is measured by quantification of the Coumberol from Coumberone (Halim, M., Yee, D. J., and Sames, D., J. AM. CHEM. SOC. 130, 14123-14128 (2008) and Yee, D. J., Balsanek, V., Bauman, D. R., Penning, T. M., and Sames, D., Proc. Natl. Acad. Sci. USA 103, 13304-13309 (2006)). In this test, the increase of the highly fluorescent Coumberol by NADPH- (nicotinamide adenine dinucleotide phosphate)-dependent reduction of the non-fluorescent Coumberone by AKR1C3 can be determined.
The enzyme used was recombinant human AKR1C3 (Aldo-keto reductase family 1 member C3) (GenBank Accession No. NM_003739). This was expressed in E. coli as GST (glutathione S transferase) fusion protein and purified by glutathione Sepharose affinity chromatography. The GST was removed by digestion with thrombin and subsequent size exclusion chromatography (Dufort, I., Rheault, P., Huang, X F., Soucy, P., and Luu-The, V., Endocrinology 140, 568-574 (1999)).
For the assay, 50 nl of a 100-fold concentrated solution of the test substance in DMSO were pipetted into a black low-volume 384-well microtiter plate (Greiner Bio-One, Frickenhausen, Germany), 2.5 μl of a solution of AKR1C3 in assay buffer [50 mM potassium phosphate buffer pH 7, 1 mM DTT, 0.0022% (w/v) Pluronic F-127, 0.01% BSA (w/v) and protease inhibitor cocktail (Complete, EDTA-free Protease Inhibitor Cocktail from Roche)] were added and the mixture was incubated for 15 min to allow pre-binding of the substances to the enzyme prior to the enzyme reaction. The enzyme reaction was then started by addition of 2.5 μl of a solution of NADPH (20 μM→final concentration in 5 μl of assay volume is 10 μM) and Coumberone (0.6 μM→final concentration in 5 μl of assay volume is 0.3 μM) in assay buffer, and the resulting mixture was incubated at […] for the reaction time of typically 90 min. The concentration of the AKR1C3 and the reaction time was adapted to the respective activity of the enzyme preparation and adjusted such that the assay was carried out in the linear range.
Typical AKR1C3 concentrations were in the region of 1 nM. The reaction was stopped by addition of 2.5 μl of a stop solution consisting of the inhibitor EM-1404 [F. Labrie et al. U.S. Pat. No. 6,541,463, 2003] (3 μM→final concentration in 7.5 μl of assay volume is 1 μM). The fluorescence of the Coumberole was then measured at 520 nm (excitation at 380 nm) using a suitable measuring instrument (Pherastar from BMG Labtechnologies). The intensity of the fluorescence was used as a measure of the amount of Coumberole formed and thus of the enzyme activity of AKR1C3. The data were normalized (enzyme reaction without inhibitor—0% inhibition; all other assay components, but no enzyme=100% inhibition).
One may read the IC50 as the midpoint of a concentration-inhibition curve. For the compound `O=C(c1cnn[nH]1)N1C[C@@H]2[C@H](C1)[C@H]1CC[C@@H]2N1S(=O)(=O)c1cc(F)ccc1Cl` [Example 63, {(3aR,4R,7S,7aS)-8-[(2-chloro-5-fluorophenyl)sulfonyl]octahydro-2H-4,7-epiminoisoindol-2-yl}(1H-1,2,3-triazol-5-yl)methanone], the concentration for half-maximal inhibition (IC50) turned out to be 2 nM. `O=C(c1cnn[nH]1)N1C[C@@H]2[C@H](C1)[C@H]1CC[C@@H]2N1S(=O)(=O)c1cccc2nonc12` [Example 46, [(3aR,4R,7S,7aS)-8-(2,1,3-benzoxadiazol-4-ylsulfonyl)octahydro-2H-4,7-epiminoisoindol-2-yl](1H-1,2,3-triazol-5-yl)methanone]: the IC50 was determined as 59 nM.

As to `CCc1ccc(S(=O)(=O)N2[C@@H]3CC[C@H]2[C@@H]2CN(C(=O)c4cnn[nH]4)C[C@@H]23)cc1` [Example 38, {(3aR,4R,7S,7aS)-8-[(4-ethylphenyl)sulfonyl]octahydro-2H-4,7-epiminoisoindol-2-yl}(1H-1,2,3-triazol-5-yl)methanone], the 50% inhibitory concentration (IC50) is 193 nM. As to `O=C(c1c[nH]nn1)N1C[C@@H]2[C@H](C1)[C@@H]1CC[C@H]2N1S(=O)(=O)c1cc(F)ccc1F` [Example 18, {(3aR,4S,7R,7aS)-8-[(2,5-difluorophenyl)sulfonyl]octahydro-2H-4,7-epiminoisoindol-2-yl}(1H-1,2,3-triazol-4-yl)methanone], the IC50 is 19 nM. Turning to `O=C(c1cnn[nH]1)N1C[C@@H]2[C@H](C1)[C@H]1CC[C@@H]2N1S(=O)(=O)c1ccc(Br)cc1` [Example 30, ((3aR,4R,7S,7aS)-8-[(4-bromophenyl)sulfonyl]octahydro-2H-4,7-epiminoisoindol-2-yl)(1H-1,2,3-triazol-5-yl)methanone], the IC50 turned out to be 193 nM.

`O=C(c1cnn[nH]1)N1C[C@@H]2[C@H](C1)[C@H]1CC[C@@H]2N1S(=O)(=O)c1ccc(Cl)cc1` [Example 31, {(3aR,4R,7S,7aS)-8-[(4-chorophenyl)sulfonyl]octahydro-2H-4,7-epiminoisoindol-2-yl}(1H-1,2,3-triazol-5-yl)methanone]: the 50% inhibitory concentration (IC50) was determined as 174 nM. As to `O=C(c1cnn[nH]1)N1C[C@@H]2[C@H](C1)[C@H]1CC[C@@H]2N1S(=O)(=O)c1cccc([N+](=O)[O-])c1` [Example 33, {(3aR,4R,7S,7aS)-8-[(3-nitrophenyl)sulfonyl]octahydro-2H-4,7-epiminoisoindol-2-yl}(1H-1,2,3-triazol-5-yl)methanone], the IC50 came to 174 nM.

In the case of `N#Cc1ccccc1S(=O)(=O)N1[C@@H]2CC[C@H]1[C@@H]1CN(C(=O)c3cnn[nH]3)C[C@@H]12` [Example 44, 2-{[(3aR,4R,7S,7aS)-2-(1H-1,2,3-triazol-5-ylcarbonyl)octahydro-1H-4,7-epiminoisoindol-8-yl]sulfonyl}benzonitrile], the IC50 amounted to 58 nM. As to `O=C(c1c[nH]nn1)N1C[C@@H]2[C@H](C1)[C@@H]1CC[C@H]2N1S(=O)(=O)c1cccc(S(F)(F)(F)(F)F)c1` [Example 11, [(3aR,4S,7R,7aS)-8-{[3-(pentafluoro-λ^6-sulfanyl)phenyl]sulfonyl}octahydro-2H-4,7-epiminoisoindol-2-yl](1H-1,2,3-triazol-4-yl)methanone], the IC50 was 69 nM. Take `O=C(c1cnn[nH]1)N1C[C@@H]2[C@H](C1)[C@H]1CC[C@@H]2N1S(=O)(=O)c1cccc(F)c1Cl` [Example 64, {(3aR,4R,7S,7aS)-8-[(2-chloro-3-fluorophenyl)sulfonyl]octahydro-2H-4,7-epiminoisoindol-2-yl}(1H-1,2,3-triazol-5-yl)methanone]: the half-maximal inhibitory concentration (IC50) is 12 nM. Regarding `O=C(c1cnn[nH]1)N1C[C@@H]2[C@H](C1)[C@H]1CC[C@@H]2N1S(=O)(=O)c1cc(F)c(F)cc1F` [Example 52, 1H-1,2,3-triazol-5-yl{(3aR,4R,7S,7aS)-8-[(2,4,5-trifluorophenyl)sulfonyl]octahydro-2H-4,7-epiminoisoindol-2-yl}methanone], the 50% inhibitory concentration (IC50) was determined as 21 nM.

For the compound `NC(=O)c1cccc(S(=O)(=O)N2[C@@H]3CC[C@H]2[C@@H]2CN(C(=O)c4cnn[nH]4)C[C@@H]23)c1` [Example 60, 3-{[(3aR,4R,7S,7aS)-2-(1H-1,2,3-triazol-5-ylcarbonyl)octahydro-1H-4,7-epiminoisoindol-8-yl]sulfonyl}benzamide], the IC50 was found to be 501 nM.

`Cc1cc(C)cc(S(=O)(=O)N2[C@@H]3CC[C@H]2[C@H]2CN(C(=O)c4cnn[nH]4)C[C@H]23)c1` [Example 24, {(3aR,4S,7R,7aS)-8-[(3,5-dimethylphenyl)sulfonyl]octahydro-2H-4,7-epiminoisoindol-2-yl}(1H-1,2,3-triazol-5-yl)methanone]: the IC50 is 66 nM. For the compound `O=C(c1c[nH]nn1)N1C[C@@H]2[C@H](C1)[C@@H]1CC[C@H]2N1S(=O)(=O)c1c(F)cccc1F` [Example 12, {(3aR,4S,7R,7aS)-8-[(2,6-difluorophenyl)sulfonyl]octahydro-2H-4,7-epiminoisoindol-2-yl}(1H-1,2,3-triazol-4-yl)methanone], the IC50 was found to be 43 nM. Take `Cc1cc(C)c(S(=O)(=O)N2[C@@H]3CC[C@H]2[C@@H]2CN(C(=O)c4cnn[nH]4)C[C@@H]23)c(C)c1` [Example 34, 1H-1,2,3-triazol-5-yl{(3aR,4R,7S,7aS)-8-[(2,4,6-trimethylphenyl)sulfonyl]octahydro-2H-4,7-epiminoisoindol-2-yl}methanone]: the IC50 came out at 27 nM. As to `COc1ccc(Cl)cc1S(=O)(=O)N1[C@@H]2CC[C@H]1[C@@H]1CN(C(=O)c3cnn[nH]3)C[C@@H]12` [Example 47, {(3aR,4R,7S,7aS)-8-[(5-chloro-2-methoxyphenyl)sulfonyl]octahydro-2H-4,7-epiminoisoindol-2-yl}(1H-1,2,3-triazol-5-yl)methanone], the 50% inhibitory concentration (IC50) stood at 85 nM.

With `O=C(c1c[nH]nn1)N1C[C@@H]2[C@H](C1)[C@@H]1CC[C@H]2N1S(=O)(=O)c1cc(F)cc(F)c1` [Example 7, {(3aR,4S,7R,7aS)-8-[(3,5-difluorophenyl)sulfonyl]octahydro-2H-4,7-epiminoisoindol-2-yl}(1H-1,2,3-triazol-4-yl)methanone], the concentration for half-maximal inhibition (IC50) was found to be 74 nM. The figure for `N#Cc1cc(S(=O)(=O)N2[C@@H]3CC[C@H]2[C@@H]2CN(C(=O)c4cnn[nH]4)C[C@@H]23)ccc1F` [Example 50, 2-fluoro-5-{[(3aR,4R,7S,7aS)-2-(1H-1,2,3-triazol-5-ylcarbonyl)octahydro-1H-4,7-epiminoisoindol-8-yl]sulfonyl}benzonitrile] is 999 nM.

`Cc1cc(Cl)cc(S(=O)(=O)N2[C@@H]3CC[C@H]2[C@@H]2CN(C(=O)c4cnn[nH]4)C[C@@H]23)c1` [Example 68, {(3aR,4R,7S,7aS)-8-[(3-chloro-5-methylphenyl)sulfonyl]octahydro-2H-4,7-epiminoisoindol-2-yl}(1H-1,2,3-triazol-5-yl)methanone]: the 50% inhibitory concentration (IC50) turned out to be 48 nM.

Take `N#Cc1ccc(Cl)c(S(=O)(=O)N2[C@@H]3CC[C@H]2[C@@H]2CN(C(=O)c4cnn[nH]4)C[C@@H]23)c1` [Example 67, 4-chloro-3-{[(3aR,4R,7S,7aS)-2-(1H-1,2,3-triazol-5-ylcarbonyl)octahydro-1H-4,7-epiminoisoindol-8-yl]sulfonyl}benzonitrile]: the half-maximal inhibitory concentration (IC50) is 33 nM. Regarding `O=C(c1cnn[nH]1)N1C[C@@H]2[C@H](C1)[C@H]1CC[C@@H]2N1S(=O)(=O)c1ccc2nsnc2c1` [Example 48, [(3aR,4R,7S,7aS)-8-(2,1,3-benzothiadiazol-5-ylsulfonyl)octahydro-2H-4,7-epiminoisoindol-2-yl](1H-1,2,3-triazol-5-yl)methanone], the IC50 was 213 nM.
